# Laboratory results taken from the supplement of paper PMC10307832.
# What was measured:
# Experiment in all cases: relative viability (nuclei count vs DMSO), 5 days (fraction); higher = more cells survive
# NCI-H1651 = system: NCI-H1651
# Outline: (§1)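 The day after seeding in 1536-well plates, lung cancer cell lines were treated by pin tool with a single drug, or with a fixed anchor-drug dose together with five library-drug doses (not always all listed) in √10 steps. After 5 days, a combined fix-and-stain solution (final 0.05% Triton X-100, 1% formaldehyde, 1 ug/ml Hoechst) was added. Nuclei counted on 4× images gave relative viability as treated counts over vehicle counts, reported as the median of duplicate plates.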
# NCI-H1648 = system: NCI-H1648
# Outline: as §1
# ChaGo-K-1 = system: ChaGo-K-1
# Outline: as §1
# IA-LM = system: IA-LM
# Outline: as §1
# SK-MES-1 = system: SK-MES-1
# Outline: as §1
# NCI-H522 = system: NCI-H522
# Outline: as §1
# A549 = system: A549
# Outline: as §1
structure (smiles),measurement,setting,value
NC(=O)Nc1cc(-c2cccc(F)c2)sc1C(=O)N[C@H]1CCCNC1 [AZD7762] + O=C(CCCCCCC(=O)Nc1ccccc1)NO [Vorinostat] (partner 1 µM),relative viability,NCI-H1651; first compound 0.01 µM,0.569
same,relative viability,NCI-H1651; first compound 0.03162 µM,0.727
same,relative viability,NCI-H1651; first compound 0.1 µM,0.587
same,relative viability,NCI-H1651; first compound 0.3162 µM,0.533
same,relative viability,NCI-H1651; first compound 1 µM,0.272
same,relative viability,NCI-H1648; first compound 0.01 µM,0.735
same,relative viability,NCI-H1648; first compound 0.03162 µM,0.488
same,relative viability,NCI-H1648; first compound 0.1 µM,0.45
same,relative viability,NCI-H1648; first compound 0.3162 µM,0.472
same,relative viability,NCI-H1648; first compound 1 µM,0.421
same,relative viability,ChaGo-K-1; first compound 0.01 µM,0.744
same,relative viability,ChaGo-K-1; first compound 0.03162 µM,0.743
same,relative viability,ChaGo-K-1; first compound 0.1 µM,0.739
same,relative viability,ChaGo-K-1; first compound 0.3162 µM,0.785
same,relative viability,ChaGo-K-1; first compound 1 µM,0.793
same,relative viability,IA-LM; first compound 0.01 µM,1.04
same,relative viability,IA-LM; first compound 0.03162 µM,0.984
same,relative viability,IA-LM; first compound 0.1 µM,1.04
same,relative viability,IA-LM; first compound 0.3162 µM,0.74
same,relative viability,IA-LM; first compound 1 µM,1.17
same,relative viability,SK-MES-1; first compound 0.01 µM,1.12
same,relative viability,SK-MES-1; first compound 0.03162 µM,1.01
same,relative viability,SK-MES-1; first compound 0.1 µM,0.841
same,relative viability,SK-MES-1; first compound 0.3162 µM,0.45
same,relative viability,SK-MES-1; first compound 1 µM,0.192
same,relative viability,NCI-H522; first compound 0.01 µM,0.869
same,relative viability,NCI-H522; first compound 0.03162 µM,0.923
same,relative viability,NCI-H522; first compound 0.1 µM,0.912
same,relative viability,NCI-H522; first compound 0.3162 µM,0.624
same,relative viability,NCI-H522; first compound 1 µM,0.783
CC1(C)CCC(c2ccc(Cl)cc2)=C(CN2CCN(c3ccc(C(=O)NS(=O)(=O)c4ccc(N[C@H](CCN5CCOCC5)CSc5ccccc5)c(S(=O)(=O)C(F)(F)F)c4)cc3)CC2)C1 [Navitoclax] + Nc1ncn([C@H]2C[C@H](O)[C@@H](CO)O2)c(=O)n1 [Decitabine] (partner 2 µM),relative viability,NCI-H1651; first compound 0.005 µM,0.797
same,relative viability,NCI-H1651; first compound 0.01581 µM,0.591
same,relative viability,NCI-H1651; first compound 0.05 µM,0.42
same,relative viability,NCI-H1651; first compound 0.1581 µM,0.628
same,relative viability,NCI-H1651; first compound 0.5 µM,0.644
same,relative viability,NCI-H1648; first compound 0.005 µM,0.528
same,relative viability,NCI-H1648; first compound 0.01581 µM,0.511
same,relative viability,NCI-H1648; first compound 0.1581 µM,0.518
same,relative viability,NCI-H1648; first compound 0.5 µM,0.44
same,relative viability,ChaGo-K-1; first compound 0.005 µM,0.498
same,relative viability,ChaGo-K-1; first compound 0.01581 µM,0.549
same,relative viability,ChaGo-K-1; first compound 0.05 µM,0.392
same,relative viability,ChaGo-K-1; first compound 0.1581 µM,0.498
same,relative viability,ChaGo-K-1; first compound 0.5 µM,0.52
same,relative viability,SK-MES-1; first compound 0.005 µM,0.371
same,relative viability,SK-MES-1; first compound 0.01581 µM,0.432
same,relative viability,SK-MES-1; first compound 0.05 µM,0.349
same,relative viability,SK-MES-1; first compound 0.1581 µM,0.344
same,relative viability,SK-MES-1; first compound 0.5 µM,0.372
same,relative viability,NCI-H522; first compound 0.005 µM,0.685
same,relative viability,NCI-H522; first compound 0.01581 µM,0.696
same,relative viability,NCI-H522; first compound 0.05 µM,0.699
same,relative viability,NCI-H522; first compound 0.1581 µM,0.547
same,relative viability,NCI-H522; first compound 0.5 µM,0.712
same,relative viability,A549; first compound 0.005 µM,0.252
same,relative viability,A549; first compound 0.01581 µM,0.249
same,relative viability,A549; first compound 0.05 µM,0.204
same,relative viability,A549; first compound 0.1581 µM,0.271
same,relative viability,A549; first compound 0.5 µM,0.246
O=C(O)c1ccc(-c2c[nH]c3ncc(-c4ccccc4)cc23)cc1C1CCCC1 + Nc1nc2[nH]cc(CCc3ccc(C(=O)N[C@@H](CCC(=O)O)C(=O)O)cc3)c2c(=O)[nH]1 [Pemetrexed] (partner 0.2 µM),relative viability,NCI-H1651; first compound 0.04 µM,0.482
same,relative viability,NCI-H1651; first compound 0.1265 µM,0.603
same,relative viability,NCI-H1651; first compound 0.4 µM,0.641
same,relative viability,NCI-H1651; first compound 1.265 µM,0.527
same,relative viability,NCI-H1648; first compound 0.04 µM,0.732
same,relative viability,NCI-H1648; first compound 0.1265 µM,0.853
same,relative viability,NCI-H1648; first compound 0.4 µM,0.681
same,relative viability,ChaGo-K-1; first compound 0.04 µM,0.249
same,relative viability,ChaGo-K-1; first compound 0.1265 µM,0.255
same,relative viability,ChaGo-K-1; first compound 0.4 µM,0.265
same,relative viability,ChaGo-K-1; first compound 1.265 µM,0.264
same,relative viability,SK-MES-1; first compound 0.04 µM,0.959
same,relative viability,SK-MES-1; first compound 0.1265 µM,1.1
same,relative viability,SK-MES-1; first compound 0.4 µM,0.941
same,relative viability,SK-MES-1; first compound 1.265 µM,0.722
same,relative viability,NCI-H522; first compound 0.04 µM,0.829
same,relative viability,NCI-H522; first compound 0.1265 µM,1.04
same,relative viability,NCI-H522; first compound 0.4 µM,0.812
same,relative viability,NCI-H522; first compound 1.265 µM,0.928
CC1(C)CCC(c2ccc(Cl)cc2)=C(CN2CCN(c3ccc(C(=O)NS(=O)(=O)c4ccc(N[C@H](CCN5CCOCC5)CSc5ccccc5)c(S(=O)(=O)C(F)(F)F)c4)cc3)CC2)C1 [Navitoclax] + CC(=O)c1c(C)c2cnc(Nc3ccc(N4CCNCC4)cn3)nc2n(C2CCCC2)c1=O [Palbociclib] (partner 0.5 µM),relative viability,NCI-H1651; first compound 0.005 µM,0.513
same,relative viability,NCI-H1651; first compound 0.01581 µM,0.552
same,relative viability,NCI-H1651; first compound 0.05 µM,0.494
same,relative viability,NCI-H1651; first compound 0.1581 µM,0.513
same,relative viability,NCI-H1651; first compound 0.5 µM,0.54
same,relative viability,NCI-H1648; first compound 0.005 µM,0.274
same,relative viability,NCI-H1648; first compound 0.01581 µM,0.269
same,relative viability,NCI-H1648; first compound 0.1581 µM,0.289
same,relative viability,NCI-H1648; first compound 0.5 µM,0.328
same,relative viability,ChaGo-K-1; first compound 0.005 µM,0.971
same,relative viability,ChaGo-K-1; first compound 0.01581 µM,0.926
same,relative viability,ChaGo-K-1; first compound 0.05 µM,0.492
same,relative viability,ChaGo-K-1; first compound 0.1581 µM,0.903
same,relative viability,ChaGo-K-1; first compound 0.5 µM,0.954
same,relative viability,SK-MES-1; first compound 0.005 µM,0.332
same,relative viability,SK-MES-1; first compound 0.01581 µM,0.343
same,relative viability,SK-MES-1; first compound 0.05 µM,0.336
same,relative viability,SK-MES-1; first compound 0.1581 µM,0.303
same,relative viability,SK-MES-1; first compound 0.5 µM,0.385
same,relative viability,NCI-H522; first compound 0.005 µM,1.02
same,relative viability,NCI-H522; first compound 0.01581 µM,1.05
same,relative viability,NCI-H522; first compound 0.05 µM,1.06
same,relative viability,NCI-H522; first compound 0.1581 µM,0.735
same,relative viability,NCI-H522; first compound 0.5 µM,0.942
